{
  "source": "paper PMC3615411",
  "about": "(Cancer research, 2008)",
  "target": "E2F4 (Mus musculus, UniProt Q8R0K9)",
  "sequence (Q8R0K9 2-410)": "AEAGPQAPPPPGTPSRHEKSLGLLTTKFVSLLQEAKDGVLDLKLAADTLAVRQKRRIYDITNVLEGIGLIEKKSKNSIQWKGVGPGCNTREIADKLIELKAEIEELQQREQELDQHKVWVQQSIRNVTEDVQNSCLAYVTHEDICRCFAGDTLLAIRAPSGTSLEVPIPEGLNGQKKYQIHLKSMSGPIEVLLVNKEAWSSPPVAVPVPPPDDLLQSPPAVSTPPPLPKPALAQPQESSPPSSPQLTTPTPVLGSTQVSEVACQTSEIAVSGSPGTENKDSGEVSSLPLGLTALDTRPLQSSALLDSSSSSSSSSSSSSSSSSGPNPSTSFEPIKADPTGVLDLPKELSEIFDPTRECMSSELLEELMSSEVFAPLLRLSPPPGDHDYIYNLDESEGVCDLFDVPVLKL",
  "assay": "EMSA of E2F4 DNA binding with compound added to cell extract",
  "format": "biochemical",
  "settings": "NIH-3T3 protein extract; 20 µM screen; STAT3 EMSA as negative control",
  "data": [
    {"smiles": "CCOc1ccc(C(Nc2ccccn2)c2ccc3ccc(C)nc3c2O)cc1C", "note": "(stereo not shown) [HLM006474]", "values": [
      {"measurement": "inhibition at 20 μM", "result": "Incubation of these compounds with NIH-3T3 protein extracts identified ten compounds with potential E2F4-inhibitory activity"}
    ]}
  ]
}
